Experimental data taken from patent publication US20240116921A1, “LACTAM (HETERO)[…] DERIVATIVES AS INHIBITORS OF ERBB2” (EnLiven Therapeutics, Inc., priority 2020, published 2024).

Legend:
[1] = biological target: Ba/F3 ERBB2-V777L (Homo sapiens, UniProt P04626, V777L, cells depend on it); experiment: Cell viability assay, Ba/F3 ERBB2-V777L; type: cell-based, mouse; details: 72 hours, CellTiter Glo, read-out: IC50, cell viability, Ba/F3 ERBB2-V777L
Protocol: (§1) Cells were treated with compounds, and cell viability was measured as a metric of kinase inhibition.
(§2) The Ba/F3 cell line is IL-3-dependent mouse cell line derived from the C3H mouse strain. Ba/F3 cell lines were engineered to express human ERBB2 or EGFR kinases, rendering the cells IL-3 independent. The lines were generated via retroviral transduction utilizing a Moloney murine leukemia virus (MMLV) promoter, and constructs are stably integrated into the cell genome. The sequences of the ERBB2 and EGFR genes used were NCBI Reference Sequences NM_004448.3 and NM_005228.3, respectively.
(§3) Similarly, Ba/F3 cell lines engineered to express EGFR, ERBB2, or ERBB2 mutants were grown, harvested, counted and seeded at 3000 cells per well in 96-well plates. A subset of wells contained media only (low control, “LC”).
(§4) Table B1 provides the growth media and number of cells seeded per well for the each cell line.
(§5) Plates were placed in a 37° C., 5% CO2 incubator for 72 hours. Plates were then removed from the incubator and equilibrated for 15 minutes at room temperature. 40 μl of CellTiter Glo reagent (Promega) was added to measure the relative level of metabolically active cells by quantifying intracellular ATP concentrations. Plates were incubated for 30 minutes at room temperature, and luminescence was measured. Percent viability was normalized to a vehicle control only using the following formula: % viability=100×(Lumsample−LumLC)/(LumHC−Lum^LC). Graphical curves were fitted using a nonlinear regression model with a sigmoidal dose response.

[2] = biological target: Ba/F3 ERBB2-L755S (Homo sapiens, UniProt P04626, L755S, cells depend on it); experiment: Cell viability assay, Ba/F3 ERBB2-L755S; type: cell-based, mouse; details: 72 hours, CellTiter Glo, read-out: IC50, cell viability, Ba/F3 ERBB2-L755S
Protocol: as §1, §2, §3, §4, §5

[3] = biological target: Ba/F3 ERBB2-T798M (Homo sapiens, UniProt P04626, T798M, cells depend on it); experiment: Cell viability assay, Ba/F3 ERBB2-T798M; type: cell-based, mouse; details: 72 hours, CellTiter Glo, read-out: IC50, cell viability, Ba/F3 ERBB2-T798M
Protocol: as §1, §2, §3, §4, §5

[4] = test system: A431; experiment: Cell viability assay (CellTiter Glo), A431; type: cell-based; details: Homo sapiens, A-431, A431 cells, 72 hours
[5] = biological target: Ba/F3 ERBB2-V777_G778insGC (Homo sapiens, UniProt P04626, INS778CG, cells depend on it); experiment: Cell viability assay, Ba/F3 ERBB2-V777_G778insGC; type: cell-based, mouse; details: 72 hours, CellTiter Glo, read-out: IC50, cell viability, Ba/F3 ERBB2-V777_G778insGC
Protocol: as §1, §2, §3, §4, §5

[6] = biological target: Ba/F3 ERBB2 A775_G776insYVMA (Homo sapiens, UniProt P04626, DUP772-775, cells depend on it); experiment: Cell viability assay, Ba/F3 ERBB2 A775_G776insYVMA; type: cell-based, mouse; details: Ba/F3 ERBB2 A775_G776insYVMA cells, 72 hours, CellTiter Glo; Tables B2-B4; read-out: IC50, cell viability, Ba/F3 ERBB2 A775_G776insYVMA
Method in brief: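 Viability after 72 h compound treatment (37 °C, 5% CO2) was quantified by CellTiter-Glo luminescence of intracellular ATP, with sigmoidal dose-response fitting. Cells were retrovirally engineered Ba/F3 lines whose growth depends on the mutant human ERBB2 in place of IL-3, plated at 3000 per well.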

[7] = biological target: Ba/F3 ERBB2-P780_Y781insGSP (Homo sapiens, UniProt P04626, DUP778-780, cells depend on it); experiment: Cell viability assay, Ba/F3 ERBB2-P780_Y781insGSP; type: cell-based, mouse; details: 72 hours, CellTiter Glo, read-out: IC50, cell viability, Ba/F3 ERBB2-P780_Y781insGSP
Protocol: as §1, §2, §3, §4
as §5, with “Percent viability was normalized to a vehicle control only using the following formula: % viability=100×(Lumsample−LumLC)/(LumHC−Lum^LC).” left out

[8] = biological target: Ba/F3 ERBB2-L869R (Homo sapiens, UniProt P04626, L869R, cells depend on it); experiment: Cell viability assay, Ba/F3 ERBB2-L869R; type: cell-based, mouse; details: 72 hours, CellTiter Glo, read-out: IC50, cell viability, Ba/F3 ERBB2-L869R
Protocol: as §1, §2, §3, §4, §5

[9] = biological target: T1, phosphorylated EGFR (pEGFR) (Homo sapiens, UniProt P00533); experiment: Detection of phosphorylated EGFR (pEGFR) in EGF-stimulated A431 cells; type: cell-based; details: A431 cells (10% FBS), 4 hours incubation, EGF 30 ng/mL 10 minutes, AlphaLISA
T1 construct: performed to measure phosphorylated EGFR levels using A431 cells (10% FBS); endogenous in cells; host or cells: A431
Method in brief: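 AlphaLISA read-out of EGFR phosphorylation after a 10-min EGF pulse (30 ng/mL final). A431 cells (10% FBS) had been exposed to compound for 4 h at 37 °C. IC50 was fitted from % inhibition normalised to DMSO and staurosporine control lysates.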

[10] = biological target: Ba/F3 ERBB2 wt (Homo sapiens, UniProt P04626); experiment: Cell viability assay, Ba/F3 ERBB2 wt; type: cell-based, mouse; details: Ba/F3 ERBB2 wt cells, 72 hours, CellTiter Glo; read-out: IC50, cell viability, Ba/F3 ERBB2 wt
Protocol: as §1, §2, §3, §4, §5

Chain of Ba/F3 ERBB2-V777_G778insGC (P04626 with tags, fused parts or gaps INS778CG): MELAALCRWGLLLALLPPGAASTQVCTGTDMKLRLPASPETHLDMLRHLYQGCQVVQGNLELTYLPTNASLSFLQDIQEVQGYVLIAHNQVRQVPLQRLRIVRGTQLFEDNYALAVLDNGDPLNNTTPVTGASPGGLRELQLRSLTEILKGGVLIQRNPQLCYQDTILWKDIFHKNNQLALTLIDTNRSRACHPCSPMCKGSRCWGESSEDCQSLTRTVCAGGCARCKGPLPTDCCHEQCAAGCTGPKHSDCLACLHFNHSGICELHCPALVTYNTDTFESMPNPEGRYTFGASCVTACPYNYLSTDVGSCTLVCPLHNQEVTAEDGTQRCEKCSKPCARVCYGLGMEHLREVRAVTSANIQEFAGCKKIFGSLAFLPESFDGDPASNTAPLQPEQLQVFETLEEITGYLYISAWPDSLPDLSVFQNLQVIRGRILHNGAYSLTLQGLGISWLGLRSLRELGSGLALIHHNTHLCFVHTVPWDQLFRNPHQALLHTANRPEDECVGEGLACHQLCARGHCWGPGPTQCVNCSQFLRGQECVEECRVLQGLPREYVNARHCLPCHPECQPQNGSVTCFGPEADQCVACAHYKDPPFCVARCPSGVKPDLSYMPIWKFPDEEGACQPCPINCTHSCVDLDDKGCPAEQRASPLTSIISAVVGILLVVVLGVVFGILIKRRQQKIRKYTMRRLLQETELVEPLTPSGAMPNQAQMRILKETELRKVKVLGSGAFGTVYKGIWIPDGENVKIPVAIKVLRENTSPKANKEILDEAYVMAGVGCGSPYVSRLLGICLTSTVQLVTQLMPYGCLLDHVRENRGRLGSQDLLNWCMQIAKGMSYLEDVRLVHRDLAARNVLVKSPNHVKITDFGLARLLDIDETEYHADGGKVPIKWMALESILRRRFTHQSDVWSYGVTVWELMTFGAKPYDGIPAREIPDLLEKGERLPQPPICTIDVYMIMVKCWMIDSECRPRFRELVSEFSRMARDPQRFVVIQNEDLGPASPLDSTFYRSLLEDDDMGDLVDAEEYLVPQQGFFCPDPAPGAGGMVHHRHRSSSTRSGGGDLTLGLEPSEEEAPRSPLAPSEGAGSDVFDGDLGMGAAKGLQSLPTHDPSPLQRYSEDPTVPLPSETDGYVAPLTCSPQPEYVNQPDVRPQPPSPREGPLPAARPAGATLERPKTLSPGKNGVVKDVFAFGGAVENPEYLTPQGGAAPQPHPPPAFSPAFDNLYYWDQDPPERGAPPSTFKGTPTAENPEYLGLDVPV
Chain of Ba/F3 ERBB2-L755S (P04626 whole entry L755S): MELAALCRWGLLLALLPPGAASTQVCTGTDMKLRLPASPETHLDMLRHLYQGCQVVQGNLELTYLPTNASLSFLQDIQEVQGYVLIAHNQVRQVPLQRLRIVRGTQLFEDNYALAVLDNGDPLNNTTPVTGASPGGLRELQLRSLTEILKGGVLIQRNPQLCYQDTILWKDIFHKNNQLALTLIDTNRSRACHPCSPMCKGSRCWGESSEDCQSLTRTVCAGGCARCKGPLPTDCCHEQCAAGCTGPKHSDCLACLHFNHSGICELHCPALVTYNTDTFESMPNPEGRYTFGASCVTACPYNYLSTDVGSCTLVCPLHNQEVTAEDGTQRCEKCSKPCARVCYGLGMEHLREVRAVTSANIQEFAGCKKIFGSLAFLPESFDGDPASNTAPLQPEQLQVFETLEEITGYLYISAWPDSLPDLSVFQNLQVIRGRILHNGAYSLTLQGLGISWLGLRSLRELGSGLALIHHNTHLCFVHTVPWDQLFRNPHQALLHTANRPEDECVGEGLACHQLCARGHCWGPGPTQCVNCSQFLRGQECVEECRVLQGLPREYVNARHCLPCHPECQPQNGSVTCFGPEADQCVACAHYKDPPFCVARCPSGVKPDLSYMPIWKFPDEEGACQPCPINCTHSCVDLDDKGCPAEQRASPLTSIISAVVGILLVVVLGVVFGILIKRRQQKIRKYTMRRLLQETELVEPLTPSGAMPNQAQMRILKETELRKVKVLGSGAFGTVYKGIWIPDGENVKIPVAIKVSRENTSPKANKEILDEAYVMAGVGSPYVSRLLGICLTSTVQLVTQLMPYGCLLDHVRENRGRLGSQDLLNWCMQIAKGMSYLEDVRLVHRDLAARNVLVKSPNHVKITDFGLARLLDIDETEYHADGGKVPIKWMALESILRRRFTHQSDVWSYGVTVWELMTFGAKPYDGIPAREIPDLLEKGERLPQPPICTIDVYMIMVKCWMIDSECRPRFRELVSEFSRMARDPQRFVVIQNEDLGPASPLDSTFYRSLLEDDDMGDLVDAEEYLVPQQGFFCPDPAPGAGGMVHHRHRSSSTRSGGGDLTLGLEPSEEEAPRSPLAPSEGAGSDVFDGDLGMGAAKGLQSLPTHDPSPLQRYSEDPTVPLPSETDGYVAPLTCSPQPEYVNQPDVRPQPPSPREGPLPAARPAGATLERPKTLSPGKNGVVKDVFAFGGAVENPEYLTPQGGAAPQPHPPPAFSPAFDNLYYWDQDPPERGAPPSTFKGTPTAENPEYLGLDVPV
Chain of Ba/F3 ERBB2 wt (P04626 whole entry, change not shown): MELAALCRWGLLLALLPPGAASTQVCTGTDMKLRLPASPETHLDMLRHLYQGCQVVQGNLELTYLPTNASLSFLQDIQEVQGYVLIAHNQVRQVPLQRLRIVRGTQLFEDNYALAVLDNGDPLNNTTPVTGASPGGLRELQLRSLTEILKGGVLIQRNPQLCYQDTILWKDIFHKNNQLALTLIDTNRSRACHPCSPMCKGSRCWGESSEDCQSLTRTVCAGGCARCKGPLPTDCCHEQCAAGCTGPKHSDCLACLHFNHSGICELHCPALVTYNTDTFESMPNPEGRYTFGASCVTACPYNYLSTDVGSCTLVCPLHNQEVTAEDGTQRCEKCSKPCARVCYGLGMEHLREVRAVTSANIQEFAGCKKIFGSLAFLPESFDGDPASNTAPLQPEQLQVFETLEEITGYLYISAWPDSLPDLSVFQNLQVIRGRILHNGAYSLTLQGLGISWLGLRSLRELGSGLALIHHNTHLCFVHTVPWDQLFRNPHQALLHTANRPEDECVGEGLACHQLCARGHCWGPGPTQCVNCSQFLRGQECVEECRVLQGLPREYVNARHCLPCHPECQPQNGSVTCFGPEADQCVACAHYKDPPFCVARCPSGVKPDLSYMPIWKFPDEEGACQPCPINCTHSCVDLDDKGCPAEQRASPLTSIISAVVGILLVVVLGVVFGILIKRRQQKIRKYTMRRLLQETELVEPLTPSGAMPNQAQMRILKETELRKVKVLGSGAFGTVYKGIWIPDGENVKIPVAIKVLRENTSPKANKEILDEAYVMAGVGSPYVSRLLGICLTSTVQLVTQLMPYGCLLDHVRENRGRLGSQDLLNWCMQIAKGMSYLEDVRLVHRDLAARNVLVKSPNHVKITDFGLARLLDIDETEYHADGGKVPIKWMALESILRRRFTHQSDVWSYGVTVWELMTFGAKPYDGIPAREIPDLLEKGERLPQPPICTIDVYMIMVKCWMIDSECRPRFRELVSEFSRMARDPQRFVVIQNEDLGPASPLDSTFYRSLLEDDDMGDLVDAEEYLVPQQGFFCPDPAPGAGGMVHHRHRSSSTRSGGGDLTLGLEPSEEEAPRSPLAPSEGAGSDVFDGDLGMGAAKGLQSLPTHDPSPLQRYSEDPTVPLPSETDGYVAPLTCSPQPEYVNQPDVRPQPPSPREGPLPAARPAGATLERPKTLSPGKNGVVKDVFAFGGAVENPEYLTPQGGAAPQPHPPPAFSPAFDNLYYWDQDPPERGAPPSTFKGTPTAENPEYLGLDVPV
Chain of Ba/F3 ERBB2-T798M (P04626 whole entry T798M): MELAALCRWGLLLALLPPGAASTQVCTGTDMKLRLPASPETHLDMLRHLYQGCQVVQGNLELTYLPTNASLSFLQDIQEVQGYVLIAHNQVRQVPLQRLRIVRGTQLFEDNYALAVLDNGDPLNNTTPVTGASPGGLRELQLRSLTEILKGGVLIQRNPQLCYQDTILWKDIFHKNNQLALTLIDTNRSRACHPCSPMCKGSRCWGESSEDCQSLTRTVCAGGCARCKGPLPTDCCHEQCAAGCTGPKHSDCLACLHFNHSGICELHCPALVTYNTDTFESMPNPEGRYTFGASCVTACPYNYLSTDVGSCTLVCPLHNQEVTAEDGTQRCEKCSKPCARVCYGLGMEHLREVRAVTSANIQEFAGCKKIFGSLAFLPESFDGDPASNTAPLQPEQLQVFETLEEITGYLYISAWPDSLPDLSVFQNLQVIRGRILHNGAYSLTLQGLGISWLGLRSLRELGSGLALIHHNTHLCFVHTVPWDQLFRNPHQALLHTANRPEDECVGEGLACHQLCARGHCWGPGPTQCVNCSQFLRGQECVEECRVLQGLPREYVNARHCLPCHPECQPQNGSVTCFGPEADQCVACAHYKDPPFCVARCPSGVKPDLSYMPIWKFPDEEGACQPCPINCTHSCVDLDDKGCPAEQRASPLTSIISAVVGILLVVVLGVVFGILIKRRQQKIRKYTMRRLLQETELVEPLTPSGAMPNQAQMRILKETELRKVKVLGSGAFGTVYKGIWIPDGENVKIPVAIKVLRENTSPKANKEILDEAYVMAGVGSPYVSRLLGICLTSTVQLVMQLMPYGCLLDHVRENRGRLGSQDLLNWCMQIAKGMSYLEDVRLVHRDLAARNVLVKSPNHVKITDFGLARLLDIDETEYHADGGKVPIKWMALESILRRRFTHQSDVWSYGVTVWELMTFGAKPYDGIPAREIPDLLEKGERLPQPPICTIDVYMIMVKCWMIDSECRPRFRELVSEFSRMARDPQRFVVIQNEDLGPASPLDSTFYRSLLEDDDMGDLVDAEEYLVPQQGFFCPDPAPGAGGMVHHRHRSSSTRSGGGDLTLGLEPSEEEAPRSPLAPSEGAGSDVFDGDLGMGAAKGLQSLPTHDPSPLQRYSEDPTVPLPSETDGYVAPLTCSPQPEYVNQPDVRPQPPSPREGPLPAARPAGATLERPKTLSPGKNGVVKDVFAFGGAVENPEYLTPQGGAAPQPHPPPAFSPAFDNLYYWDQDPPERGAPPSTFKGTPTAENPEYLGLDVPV

Row | IC50 [4] [nM] | IC50 [9] [nM] | SMILES | GI50 [1] [nM] | GI50 [2] [nM] | GI50 [3] [nM] | GI50 [5] [nM] | GI50 [6] [nM] | GI50 [7] [nM] | GI50 [8] [nM] | GI50 [10] [nM]
1 | 1280 | 205 | C=C1CCN(c2ccc3ncnc(Nc4ccc(Oc5ccn6ccnc6c5)c(C)c4)c3c2)C1=O [Compound 4, 1-[4-[(4-[imidazo[1,2-a]pyridin-7-yloxy]-3-methylphenyl)amino]quinazolin-6-yl]-3-methylidenepyrrolidin-2-one] | 1.3 | 14 | 154 | 1.8 | 16 | 2.6 | 4.8 | 3.9
2 | 5800 | 1230 | C=C1CCN(c2ccc3ncnc(Nc4ccc(Oc5ccn6ncnc6c5)c(C)c4)c3c2)C1=O [Compound 1, 1-[4-[(3-methyl-4-[[1,2,4]triazolo[1,5-a]pyridin-7-yloxy]phenyl)amino]quinazolin-6-yl]-3-methylidenepyrrolidin-2-one] | 0.41 | 13 | 151 | 0.82 | 28 | 3.4 | 3.6 | 2.3
